PMC3290907 (Evidence-based Complementary and Alternative Medicine : eCAM, 2012)

Target: T1, PDE4 (homogenate of guinea pig lungs or hearts)
T1 construct: gene PDE4A; native enzyme activity in lung or heart homogenate; subtype not resolved; other PDE families may be present
Assay: [3H]-cAMP hydrolysis, two-step radioassay, Lineweaver-Burk
Type: biochemical, Cavia porcellus
Conditions: cAMP substrate; 3 mM MgCl2; pH 7.4; 37°C; competitive; lung or heart homogenate

COc1ccc([C@@H]2CC(=O)c3c(O)cc(O)cc3O2)cc1O [hesperetin, 5,7,3′-trihydroxy-4′-methoxyflavanone]
Ki: 45.6 ± 2.3 µM
